Starred links: 1 amine or outer side, 2 acyl side, 3 side chain; linkers in the order of their positions; H or OH if unused. Positions of bridges follow the written chain, without caps; N, C: chain ends. Non-standard residues stand in square brackets, D forms with d. Residues, ends and D or L forms follow the SMILES beside them. *: point of attachment. hPhe(3-Cl-4-CF3) = N[C@@H](CCc1ccc(C(F)(F)F)c(Cl)c1)C(=O)O; hPhe(3-F,4-CF3) = N[C@@H](CCc1ccc(C(F)(F)F)c(F)c1)C(=O)O; NMePhe(4-CF3) = CN[C@@H](Cc1ccc(C(F)(F)F)cc1)C(=O)O; NMePhe(4-Cl) = CN[C@@H](Cc1ccc(Cl)cc1)C(=O)O; X9 = O=C([C@H](CCc1ccc2cccnc2c1)N[*:1])[*:2]; NMedβ3hAla = C[C@H](CC(=O)[*:2])N(C)[*:1]; NMeGly(cPent) = CN[C@H](C(=O)O)C1CCCC1; NMeCha = CN[C@@H](CC1CCCCC1)C(=O)O; NEtLeu = CCN[C@@H](CC(C)C)C(=O)O; NMeF = CN[C@@H](Cc1ccccc1)C(=O)O; NMeI = CC[C@H](C)[C@H](NC)C(=O)O; NMeD = CN[C@@H](CC(=O)O)C(=O)O; NMeL = CN[C@@H](CC(C)C)C(=O)O; NMeV = CN[C@H](C(=O)O)C(C)C; d(β3hA) = C[C@@H](N)CC(=O)O; Azetidin(1-yl) = C1CN(*)C1; NMeAbu = CC[C@H](NC)C(=O)O; NMeS = CN[C@@H](CO)C(=O)O; NMeA = CN[C@@H](C)C(=O)O; Piperidide = C1CCN(*)CC1; Pyrrolidide = C1CCN(*)C1; dNMeA = CN[C@H](C)C(=O)O; Ac5c = NC1(C(=O)O)CCCC1; Aze = O=C(O)[C@@H]1CCN1; Cyclopropyl = C1CC1*; Sar = CNCC(=O)O; Propyl = CCC*

This experiment deals with Human pancreatic cancer cell line AsPC-1. As to the kind of experiment: Measurement of AsPC-1 cell growth inhibition (AsPC-1 CGI). Format: cell-based. To be noted: 96 h. In short, it runs like this: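 AsPC-1 cells in 15% FBS RPMI-1640 were exposed to test compound for 96 hours at 37° C, with CellTiter-Glo as endpoint.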
A word on the IC50: it is the concentration needed to halve the response being measured. With `CC[C@H](C)[C@@H]1NC(=O)[C@H](CC(C)C)N(C)C(=O)C[C@@H](C(=O)N2CCCCC2)N(C)C(=O)[C@H](C(C)C)N(C)C(=O)C2(CCCC2)NC(=O)[C@@H]2CCCN2C(=O)[C@H](CCc2ccc(C(F)(F)F)c(Cl)c2)NC(=O)CN(C)C(=O)[C@H](CC2CCCCC2)N(C)C(=O)[C@@H]2CCN2C(=O)[C@H](COC2CC2)N(C)C1=O` [Compound 676] ([NMeL]I[NMeS](Cyclopropyl)[Aze][NMeCha][Sar][hPhe(3-Cl-4-CF3)]P[Ac5c][NMeV][NMeD]-Piperidide; lactam N-11), the IC50 was in the range of 100 to 500 nM. Take `CC[C@H](C)[C@@H]1NC(=O)[C@H](CC(C)C)N(C)C(=O)C[C@@H](C(=O)N2CCCCC2)N(C)C(=O)[C@H](C(C)C)N(C)C(=O)C2(CCCC2)NC(=O)[C@@H]2CCCN2C(=O)[C@H](CCc2ccc(C(F)(F)F)c(Cl)c2)NC(=O)CN(C)C(=O)[C@H](CC2CCCCC2)N(C)C(=O)[C@@H]2CCN2C(=O)[C@H](Cc2ccccc2)N(C)C1=O` [Compound 1561] ([NMeL]I[NMeF][Aze][NMeCha][Sar][hPhe(3-Cl-4-CF3)]P[Ac5c][NMeV][NMeD]-Piperidide; lactam N-11): the 50% inhibitory concentration (IC50) lay in the range of 100 to 500 nM.

The compound `CCCOC[C@H]1C(=O)N(C)CC(=O)N[C@@H](CCc2ccc(C(F)(F)F)c(F)c2)C(=O)N2CCC[C@H]2C(=O)NC2(CCCC2)C(=O)N(C)[C@@H]([C@@H](C)CC)C(=O)N(C)[C@H](C(=O)N2CCCC2)CC(=O)N(C)[C@@H](CC(C)C)C(=O)N[C@@H]([C@@H](C)CC)C(=O)N(C)[C@@H](C)C(=O)N2CC[C@H]2C(=O)N1C` [Compound 684] ([NMeL]I[NMeA][Aze][NMeS](Propyl)[Sar][hPhe(3-F,4-CF3)]P[Ac5c][NMeI][NMeD]-Pyrrolidide; lactam N-11) gave an IC50 of 20 to 50 nM.

In the case of `CC[C@H](C)[C@@H]1NC(=O)[C@H](CC(C)C)N(CC)C(=O)C[C@@H](C(=O)N2CCC2)N(C)C(=O)[C@H](C2CCCC2)N(C)C(=O)C2(CCCC2)NC(=O)[C@@H]2CCCN2C(=O)[C@H](CCc2ccc(C(F)(F)F)c(Cl)c2)NC(=O)CN(C)C(=O)[C@H](CC2CCCCC2)N(C)C(=O)[C@@H]2CCN2C(=O)[C@H](C)NC1=O` [Compound 1262] ([NEtLeu]IA[Aze][NMeCha][Sar][hPhe(3-Cl-4-CF3)]P[Ac5c][NMeGly(cPent)][NMeD]-{Azetidin(1-yl)}; lactam N-11), the IC50 lay in the range of 100 to 500 nM.

As for `CC[C@H](C)[C@@H]1NC(=O)[C@H](CC(C)C)N(C)C(=O)C[C@@H](C(=O)N2CCCCC2)N(C)C(=O)[C@H](C2CCCC2)N(C)C(=O)C2(CCCC2)NC(=O)[C@@H]2CCCN2C(=O)[C@H](CCc2ccc3cccnc3c2)NC(=O)CN(C)C(=O)[C@H](CC2CCCCC2)N(C)C(=O)[C@@H]2CCN2C(=O)[C@H](C)N(C)C1=O` [Compound 2077] ([NMeL]I[NMeA][Aze][NMeCha][Sar][X9]P[Ac5c][NMeGly(cPent)][NMeD]-Piperidide; lactam N-11), the IC50 fell in the range of 100 to 500 nM. The result for `CC[C@H](C)[C@@H]1NC(=O)[C@H](CC(C)C)N(C)C(=O)C[C@@H](C)NC(=O)[C@H](C2CCCC2)N(C)C(=O)C2(CCCC2)NC(=O)[C@@H]2CCCN2C(=O)[C@H](CCc2ccc(C(F)(F)F)c(Cl)c2)NC(=O)[C@@H](C)N(C)C(=O)[C@H](Cc2ccc(C(F)(F)F)cc2)N(C)C(=O)[C@@H]2CCN2C(=O)[C@H](C)N(C)C1=O` [Compound 1482] (cyclo([Ac5c][NMeGly(cPent)][d(β3hA)][NMeL]I[NMeA][Aze][NMePhe(4-CF3)][dNMeA][hPhe(3-Cl-4-CF3)]P)) reads 100 to 500 nM; that for `CCCOC[C@H]1C(=O)N(C)CC(=O)N[C@@H](CCc2ccc(C(F)(F)F)c(F)c2)C(=O)N2CCC[C@H]2C(=O)NC2(CCCC2)C(=O)N(C)[C@@H](C2CCCC2)C(=O)N(C)[C@H](C)CC(=O)N(C)[C@@H](CC(C)C)C(=O)N[C@@H]([C@@H](C)CC)C(=O)N(C)[C@@H](C)C(=O)N2CC[C@H]2C(=O)N1C` [Compound 776] (cyclo([Ac5c][NMeGly(cPent)][NMedβ3hAla][NMeL]I[NMeA][Aze][NMeS](Propyl)[Sar][hPhe(3-F,4-CF3)]P)), 20 to 50 nM. The compound `CC[C@H](C)[C@@H]1NC(=O)[C@H](CC(C)C)N(C)C(=O)C[C@@H](C(=O)N2CCCCC2)N(C)C(=O)[C@H](C(C)C)N(C)C(=O)C2(CCCC2)NC(=O)[C@@H]2CCCN2C(=O)[C@H](CCc2ccc(C(F)(F)F)c(Cl)c2)NC(=O)CN(C)C(=O)[C@H](Cc2ccc(Cl)cc2)N(C)C(=O)[C@@H]2CCN2C(=O)[C@H](C)N(C)C1=O` [Compound 680] ([NMeL]I[NMeA][Aze][NMePhe(4-Cl)][Sar][hPhe(3-Cl-4-CF3)]P[Ac5c][NMeV][NMeD]-Piperidide; lactam N-11) showed an IC50 of 100 to 500 nM. As for `CC[C@H](C)[C@@H]1NC(=O)[C@H](CC(C)C)N(C)C(=O)C[C@@H](C(=O)N2CCCCC2)N(C)C(=O)[C@H](C(C)C)N(C)C(=O)C2(CCCC2)NC(=O)[C@@H]2CCCN2C(=O)[C@H](CCc2ccc(C(F)(F)F)c(Cl)c2)NC(=O)CN(C)C(=O)[C@H](CC2CCCCC2)N(C)C(=O)[C@@H]2CCN2C(=O)[C@H](CC)N(C)C1=O` [Compound 1569] ([NMeL]I[NMeAbu][Aze][NMeCha][Sar][hPhe(3-Cl-4-CF3)]P[Ac5c][NMeV][NMeD]-Piperidide; lactam N-11), the IC50 was 100 to 500 nM.

These data come from patent publication US12371454B2, “Cyclic peptide compound having Kras inhibitory action” (priority 2019, dated 2025).
